Legend:
Experiment in all cases: Test C pre/postemergence
Format in all cases: in vivo
[1] = system: pigweed (Amaranthus retroflexus); conditions: for Pigweed plant response rating: scale 0 to 100 (0 no effect, 100 complete control)
Outline: (§1)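 We sprayed seeded pots preemergence and 2–18 cm seedlings postemergence with test chemicals in a non-phytotoxic solvent mixture including surfactant. Greenhouse plants were visually compared with untreated controls at 12 to 14 days and scored 0 (no effect) to 100 (complete control).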

[2] = system: woolly cupgrass (Eriochloa villosa); conditions: for Cupgrass, Woolly plant response rating: scale 0 to 100 (0 no effect, 100 complete control)
Outline: as §1

[3] = system: crabgrass (Digitaria sanguinalis); conditions: for Crabgrass plant response rating: scale 0 to 100 (0 no effect, 100 complete control)
Outline: as §1

[4] = system: kochia (Kochia scoparia); conditions: for Kochia plant response rating: scale 0 to 100 (0 no effect, 100 complete control)
Outline: as §1

[5] = system: eastern black nightshade (Solanum ptycanthum); conditions: Preemergence
Outline: as §1

[6] = system: cocklebur (Xanthium strumarium); conditions: for Cocklebur plant response rating: scale 0 to 100 (0 no effect, 100 complete control)
Outline: as §1

[7] = system: giant foxtail (Setaria faberii); conditions: for Foxtail, Giant plant response rating: scale 0 to 100 (0 no effect, 100 complete control)
Outline: as §1

[8] = system: common ragweed (Ambrosia elatior); conditions: for Ragweed plant response rating: scale 0 to 100 (0 no effect, 100 complete control)
Outline: as §1

[9] = system: morningglory (Ipomoea coccinea); conditions: for Morningglory plant response rating: scale 0 to 100 (0 no effect, 100 complete control)
Outline: as §1

[10] = system: velvetleaf (Abutilon theophrasti); conditions: for Velvetleaf plant response rating: scale 0 to 100 (0 no effect, 100 complete control)
Outline: as §1

[11] = system: common (oilseed) sunflower (Helianthus annuus); conditions: Preemergence
Outline: as §1

[12] = system: yellow nutsedge (Cyperus esculentus); conditions: for Nutsedge, Yellow plant response rating: scale 0 to 100 (0 no effect, 100 complete control)
Outline: as §1

[13] = Postemergence, 250 g ai/ha, scale 0 to 100
[14] = Postemergence, 500 g ai/ha, scale 0 to 100
[15] = Preemergence, 62 g ai/ha, scale 0 to 100, 0 no effect, 100 complete control
[16] = Preemergence, 125 g ai/ha, scale 0 to 100
[17] = Preemergence, 250 g ai/ha, scale 0 to 100
[18] = Preemergence, 500 g ai/ha, scale 0 to 100
[19] = 62 g ai/ha, scale 0 to 100, 0 no effect, 100 complete control
[20] = Preemergence, 31 g ai/ha, scale 0 to 100, 0 no effect, 100 complete control
[21] = 31 g ai/ha, scale 0 to 100, 0 no effect, 100 complete control

COC(=O)CNc1nc(C2CC2)nc(C(=O)OC)c1Br [Compound 10]
45: Plant response rating, Kochia [4, 17] | Ragweed plant response rating ([8]; Postemergence, 62 g ai/ha)
70: Plant response rating, Pigweed [1, 17] | Morningglory plant response rating ([9]; Postemergence, 62 g ai/ha) | Velvetleaf plant response rating ([10]; Postemergence, 125 g ai/ha)
90: Kochia plant response rating ([4]; Postemergence, 125 g ai/ha) | Plant response rating, Ragweed [8, 14] | Plant response rating, Velvetleaf [10, 14]
85: Plant response rating, Pigweed [1, 18] | Plant response rating, Ragweed [8, 18] | Morningglory plant response rating ([9]; Postemergence, 125 g ai/ha)
65: Pigweed plant response rating ([1]; Postemergence, 62 g ai/ha) | Plant response rating, Kochia [4, 18] | Ragweed plant response rating ([8]; Postemergence, 125 g ai/ha) | Velvetleaf plant response rating ([10]; Postemergence, 62 g ai/ha)
15: Cocklebur plant response rating ([6]; Postemergence, 125 g ai/ha)
80: Pigweed plant response rating ([1]; Postemergence, 125 g ai/ha) | Kochia plant response rating ([4]; Postemergence, 62 g ai/ha) | Plant response rating, Ragweed [8, 13] | Plant response rating, Velvetleaf [10, 13]
75: Plant response rating, Cocklebur [6, 14]
0: Cupgrass, Woolly plant response rating ([2]; Postemergence, 62 g ai/ha) | Cupgrass, Woolly plant response rating ([2]; Postemergence, 125 g ai/ha) | Plant response rating, Cupgrass, Woolly [2, 13] | Plant response rating, Cupgrass, Woolly [2, 14] | Plant response rating, Cupgrass, Woolly [2, 15] | Plant response rating, Cupgrass, Woolly [2, 16] | Plant response rating, Cupgrass, Woolly [2, 17] | Plant response rating, Cupgrass, Woolly [2, 18] | Crabgrass plant response rating ([3]; Postemergence, 62 g ai/ha) | Crabgrass plant response rating ([3]; Postemergence, 125 g ai/ha) | Plant response rating, Crabgrass [3, 13] | Plant response rating, Crabgrass [3, 14] | Plant response rating, Crabgrass [3, 15] | Plant response rating, Crabgrass [3, 16] | Plant response rating, Crabgrass [3, 17] | Plant response rating, Crabgrass [3, 18] | Plant response rating, Kochia [4, 15] | Plant response rating, Kochia [4, 16] | Cocklebur plant response rating ([6]; Postemergence, 62 g ai/ha) | Plant response rating, Cocklebur [6, 16] | Plant response rating, Cocklebur [6, 17] | Foxtail, Giant plant response rating ([7]; Postemergence, 62 g ai/ha) | Foxtail, Giant plant response rating ([7]; Postemergence, 125 g ai/ha) | Plant response rating, Foxtail, Giant [7, 13] | Plant response rating, Foxtail, Giant [7, 14] | Plant response rating, Foxtail, Giant [7, 15] | Plant response rating, Foxtail, Giant [7, 16] | Plant response rating, Foxtail, Giant [7, 17] | Plant response rating, Foxtail, Giant [7, 18] | Plant response rating, Ragweed [8, 15] | Plant response rating, Ragweed [8, 16] | Plant response rating, Morningglory [9, 15] | Plant response rating, Morningglory [9, 16] | Plant response rating, Morningglory [9, 17] | Plant response rating, Velvetleaf [10, 15] | Plant response rating, Velvetleaf [10, 16] | Plant response rating, Velvetleaf [10, 17] | Plant response rating, Sunflower [11, 19] | Plant response rating, Sunflower ([11]; 125 g ai/ha, scale 0 to 100) | Plant response rating, Sunflower ([11]; 250 g ai/ha, scale 0 to 100) | Plant response rating, Sunflower ([11]; 500 g ai/ha, scale 0 to 100) | Nutsedge, Yellow plant response rating ([12]; Postemergence, 62 g ai/ha) | Nutsedge, Yellow plant response rating ([12]; Postemergence, 125 g ai/ha) | Plant response rating, Nutsedge, Yellow [12, 13] | Plant response rating, Nutsedge, Yellow [12, 14] | Plant response rating, Nutsedge, Yellow [12, 15] | Plant response rating, Nutsedge, Yellow [12, 16]
20: Plant response rating, Pigweed [1, 15] | Plant response rating, Nightshade ([5]; 250 g ai/ha, scale 0 to 100)
95: Plant response rating, Pigweed [1, 13] | Plant response rating, Pigweed [1, 14] | Plant response rating, Kochia [4, 13] | Plant response rating, Nightshade ([5]; 500 g ai/ha, scale 0 to 100) | Plant response rating, Morningglory [9, 13] | Plant response rating, Morningglory [9, 14]
55: Plant response rating, Pigweed [1, 16] | Plant response rating, Ragweed [8, 17]
60: Plant response rating, Cocklebur [6, 13] | Plant response rating, Velvetleaf [10, 18]
100: Plant response rating, Kochia [4, 14] | Plant response rating, Cocklebur [6, 18] | Plant response rating, Morningglory [9, 18]

CCOC(=O)Cc1nc(C2CC2)nc(N)c1Br [Compound 12]
10: Plant response rating, Pigweed [1, 20] | Plant response rating, Cupgrass, Woolly [2, 16] | Plant response rating, Ragweed [8, 15]
80: Plant response rating, Nightshade ([5]; 250 g ai/ha, scale 0 to 100)
100: Plant response rating, Cupgrass, Woolly [2, 17]
85: Plant response rating, Pigweed [1, 17] | Plant response rating, Kochia [4, 17] | Plant response rating, Cocklebur [6, 16] | Plant response rating, Ragweed [8, 17] | Plant response rating, Sunflower ([11]; 250 g ai/ha, scale 0 to 100)
70: Plant response rating, Velvetleaf [10, 17]
5: Plant response rating, Velvetleaf [10, 15]
30: Plant response rating, Morningglory [9, 20]
90: Plant response rating, Cocklebur [6, 17] | Plant response rating, Morningglory [9, 17]
50: Plant response rating, Pigweed [1, 15] | Plant response rating, Pigweed [1, 16] | Plant response rating, Kochia [4, 15] | Plant response rating, Kochia [4, 16] | Plant response rating, Nightshade [5, 19] | Plant response rating, Cocklebur [6, 20] | Plant response rating, Cocklebur [6, 15] | Plant response rating, Velvetleaf [10, 16]
0: Plant response rating, Cupgrass, Woolly [2, 20] | Plant response rating, Cupgrass, Woolly [2, 15] | Plant response rating, Crabgrass [3, 20] | Plant response rating, Crabgrass [3, 15] | Plant response rating, Crabgrass [3, 16] | Plant response rating, Crabgrass [3, 17] | Plant response rating, Kochia [4, 20] | Plant response rating, Foxtail, Giant [7, 20] | Plant response rating, Foxtail, Giant [7, 15] | Plant response rating, Foxtail, Giant [7, 16] | Plant response rating, Foxtail, Giant [7, 17] | Plant response rating, Velvetleaf [10, 20] | Plant response rating, Sunflower [11, 21] | Plant response rating, Sunflower [11, 19] | Plant response rating, Sunflower ([11]; 125 g ai/ha, scale 0 to 100) | Plant response rating, Nutsedge, Yellow [12, 20] | Plant response rating, Nutsedge, Yellow [12, 15] | Plant response rating, Nutsedge, Yellow [12, 16] | Plant response rating, Nutsedge, Yellow [12, 17]
20: Plant response rating, Ragweed [8, 16]
60: Plant response rating, Nightshade ([5]; 125 g ai/ha, scale 0 to 100) | Plant response rating, Morningglory [9, 15] | Plant response rating, Morningglory [9, 16]

COC(=O)Cc1nc(C2CC2)nc(N)c1Br [Compound 13]
95: Plant response rating, Cocklebur [6, 17]
45: Plant response rating, Kochia [4, 20] | Plant response rating, Ragweed [8, 20]
85: Plant response rating, Pigweed [1, 16] | Plant response rating, Kochia [4, 17] | Plant response rating, Ragweed [8, 17] | Plant response rating, Morningglory [9, 16]
50: Plant response rating, Pigweed [1, 20] | Plant response rating, Sunflower [11, 19]
5: Plant response rating, Foxtail, Giant [7, 17] | Plant response rating, Sunflower [11, 21]
80: Plant response rating, Kochia [4, 16] | Plant response rating, Velvetleaf [10, 16]
90: Plant response rating, Pigweed [1, 17] | Plant response rating, Nightshade ([5]; 125 g ai/ha, scale 0 to 100) | Plant response rating, Nightshade ([5]; 250 g ai/ha, scale 0 to 100) | Plant response rating, Cocklebur [6, 16] | Plant response rating, Morningglory [9, 17] | Plant response rating, Velvetleaf [10, 17] | Plant response rating, Sunflower ([11]; 250 g ai/ha, scale 0 to 100)
70: Plant response rating, Ragweed [8, 16]
40: Plant response rating, Cocklebur [6, 20]
60: Plant response rating, Pigweed [1, 15] | Plant response rating, Kochia [4, 15] | Plant response rating, Cocklebur [6, 15] | Plant response rating, Ragweed [8, 15] | Plant response rating, Morningglory [9, 20] | Plant response rating, Velvetleaf [10, 20] | Plant response rating, Velvetleaf [10, 15] | Plant response rating, Sunflower ([11]; 125 g ai/ha, scale 0 to 100)
0: Plant response rating, Cupgrass, Woolly [2, 20] | Plant response rating, Cupgrass, Woolly [2, 15] | Plant response rating, Cupgrass, Woolly [2, 16] | Plant response rating, Cupgrass, Woolly [2, 17] | Plant response rating, Crabgrass [3, 20] | Plant response rating, Crabgrass [3, 15] | Plant response rating, Crabgrass [3, 16] | Plant response rating, Crabgrass [3, 17] | Plant response rating, Nightshade [5, 21] | Plant response rating, Nightshade [5, 19] | Plant response rating, Foxtail, Giant [7, 20] | Plant response rating, Foxtail, Giant [7, 15] | Plant response rating, Foxtail, Giant [7, 16] | Plant response rating, Nutsedge, Yellow [12, 20] | Plant response rating, Nutsedge, Yellow [12, 15] | Plant response rating, Nutsedge, Yellow [12, 16] | Plant response rating, Nutsedge, Yellow [12, 17]
65: Plant response rating, Morningglory [9, 15]

From US8802597B2, “Herbicidal pyrimidines” (E I du Pont de Nemours and Company, priority 2003, dated 2014)
